Legend:
Format in all cases: in vivo, human
[1] = Quantitative sensory evaluation test: imparting kokumi to Japanese clear soup; conditions: n=12, 0 control, 3 intense, 5 extremely intense
Experimental: The intensity of activity for imparting kokumi to clear soup of each peptide having confirmed calcium receptor activation activity was measured by a quantitative sensory evaluation test, performed as follows: Japanese clear soup was prepared by adding 0.5 g/dl of soy sauce and 0.6 g/dl of sodium chloride to bonito kelp stock, obtained by adding 5 g of dried kelp to 3 L of water, heating the water, adding 25 g of dried bonito flakes just before boiling, and then filtering the water containing kelp and bonito flakes. To this clear soup, samples of either γ-Glu-Cys-Gly (glutathione) or γ-Glu-Val-Gly was added to a concentration of 0.0001 to 1 g/dl, and the intensity of the kokumi-imparting activity was measured for each sample. The clear soup with the samples that became acidic after dissolution of the samples with respect to the clear soup without the samples were adjusted with NaOH to pH not lower or higher by 0.2 than pH of the clear soup without the samples before use. Sensory evaluation scores were used to evaluate as follows: 0 points for the control sample, 3 points for intense activity as compared to the control, and 5 points for extremely intense activity as compared to the control, and the test was performed with n=12.

[2] = Quantitative sensory evaluation test: imparting kokumi to corn soup; conditions: n=12, 0 control, 3 intense, 5 extremely intense
Experimental: The intensity of the activity for imparting kokumi to corn soup of each peptide having confirmed calcium receptor activation activity was measured by a quantitative sensory evaluation test, performed as follows: to commercially available corn soup, samples of either γ-Glu-Cys-Gly (glutathione) or γ-Glu-Val-Gly were added to a concentration of 0.0001 to 1 g/dl, and the intensity of the kokumi-imparting activity was measured for each sample. The corn soup with the samples that became acidic after dissolution of the samples with respect to the corn soup without the samples was adjusted with NaOH to pH not lower or higher by 0.2 than pH of the corn soup without the samples before use. Sensory evaluation scores were used to evaluate as follows: 0 points for the control sample, 3 points for intense activity as compared to the control, and 5 points for extremely intense activity as compared to the control, and the test was performed with n=12.

[3] = Quantitative sensory evaluation test: kokumi-imparting activity of peptides combined with known calcium receptor activators or additives; conditions: for Intensity of kokumi: Aftertaste / Intensity of kokumi: First and middle taste: alone, n=12, 0 control, 3 intense, 6 extremely intense
Experimental: The intensity of the kokumi-imparting activity of each peptide having confirmed calcium receptor activation activity and a known calcium receptor activator used in combination was measured by a quantitative sensory evaluation test, performed as follows: Samples of γ-Glu-Cys-Gly (glutathione) or γ-Glu-Val-Gly (0.0001 to 1 g/dl), or these samples combined with a calcium receptor activator such as calcium lactate, protamine or polylysine, or GABA (addition concentration: 0.0001 to 1 g/dl) were added to distilled water containing sodium glutamate (0.05 g/dl), inosine monophosphate (0.05 g/dl), and sodium chloride (0.5 g/dl), and the intensity of the kokumi-imparting activity was measured. Sample solutions that became acidic after dissolution of the samples were adjusted to pH 6.8 to 7.2 with NaOH before use. Sensory evaluation scores were used to evaluate as follows: 0 points for the control sample, 3 points for intense activity (as intensity of 0.05 g/dl γ-Glu-Cys-Gly and 0.005 g/dl γ-Glu-Val-Gly), and 6 points for extremely intense activity (as twice intensity of 0.05 g/dl γ-Glu-Cys-Gly and 0.005 g/dl γ-Glu-Val-Gly), and the test was performed with n=12.

[4] = Quantitative sensory evaluation test of kokumi-imparting activity in water with sodium glutamate, inosine monophosphate and sodium chloride; set-up: key: *: Unmeasurable: Kokumi-imparting activity was too strong and could not be measured by the sensory evaluation
Experimental: Sample solutions that became acidic after dissolution of the samples were adjusted to pH 6.8 to 7.2 with NaOH before use. Sensory evaluation scores were used for evaluation based on the control sample (0 points) and the glutathione sample (3 points), and the test was performed with n=3.
The sample solutions that became acidic after dissolution of the samples were adjusted to pH 6.8 to 7.2 with NaOH before use. Sensory evaluation scores were used for evaluation based on the control sample (0 points) and the glutathione sample (3 points), and the test was performed with n=5.
Sample solutions that became acidic after dissolution of the samples were adjusted to pH 6.8 to 7.2 with NaOH before use. Sensory evaluation scores were used for evaluation based on the control sample (0 points) and the glutathione sample (3 points), and the test was performed with n=12.

[5] = Quantitative sensory evaluation test: imparting kokumi to consomme soup; conditions: n=12, 0 control, 3 intense, 5 extremely intense
Experimental: The intensity of activity for imparting kokumi to consomme soup of each peptide having confirmed calcium receptor activation activity was measured by a quantitative sensory evaluation test, performed as follows: Consomme soup was prepared by dissolving consomme soup powder (35% of sodium chloride, 18% of sodium glutamate, 0.2% of inosine monophosphate, 0.3% of white pepper powder, 0.5% of black pepper powder, 8.0% of beef extract powder, 3.0% of white wine powder, 2.0% of celery powder, 8.0% of Chinese cabbage extract powder, 2.5% of onion extract powder, […]) at a concentration of 5 g/dl. To this consomme soup, samples of either γ-Glu-Cys-Gly (glutathione) or γ-Glu-Val-Gly was added to a concentration of 0.0001 to 1 g/dl, and the intensity of the kokumi-imparting activity was measured for each sample. The consomme soup with the samples that became acidic after dissolution of the samples with respect to the consomme soup without the samples was adjusted with NaOH to pH not lower or higher by 0.2 than pH of the consomme soup without the samples before use. Sensory evaluation scores were used for evaluation as follows: 0 points for the control sample, 3 points for intense activity as compared to the control, and 5 points for extremely intense activity as compared to the control, and the test was performed with n=12.

[6] = Quantitative sensory evaluation test of activity on basic tastes (umami, sweet, salty, sour standards); conditions: n=12, 0 control, 1 fairly intense, 2 intense; for Sour taste (intensity of activity on basic tastes): citric acid 0.05 g/dl standard; for Salty taste (intensity of activity on basic tastes): sodium chloride 0.7 g/dl standard; for Umami (intensity of activity on basic tastes): sodium glutamate 0.2 g/dl standard; for Sweet taste (intensity of activity on basic tastes): sucrose 5 g/dl standard
Experimental: The intensity of the activity on basic tastes of each peptide having confirmed calcium receptor activation activity was measured by a quantitative sensory evaluation test, performed as follows: Samples of either γ-Glu-Cys-Gly (glutathione) or γ-Glu-Val-Gly were added to distilled water (0.0001 to 1 g/dl) containing sodium glutamate (0.2 g/dl) for the umami standard, sucrose (5 g/dl) for the sweet taste standard, sodium chloride (0.7 g/dl) or the salty taste standard, or citric acid (0.05 g/dl) for the sour taste standard, and the intensity of the activity on basic tastes was measured for each sample.
Sample solutions that became acidic after dissolution of the samples with respect to the standard solutions without the samples were adjusted with NaOH to pH not lower or higher by 0.2 than pH of the standard solutions before use. Sensory evaluation scores were used to evaluate the intensity as follows: 0 points for the control sample, 1 point for fairly intense activity as compared to the control, and 2 points for intense activity as compared to the control, and the test was performed with n=12.

[7] = Table 5, 0.1 g/dl, n=3, control 0, glutathione 3 points
[8] = Table 6, 0.1 g/dl, n=5, control 0, glutathione 3 points
[9] = Table 7, 0.1 g/dl, n=12, control 0, glutathione 3 points
[10] = Table 6, 0.01 g/dl, n=5, control 0, glutathione 3 points
[11] = Table 7, 0.01 g/dl, n=12, control 0, glutathione 3 points

SMILES: N[C@@H](CCC(=O)N[C@@H](CS)C(=O)NCC(=O)O)C(=O)O [γ-Glu-Cys-Gly, reference compound]
- Intensity of kokumi: Aftertaste ([1]; 0.01 g/dl): 2.0 points
- Intensity of kokumi: First and middle taste ([1]; 0.01 g/dl): 2.0 points
- Intensity of kokumi: Aftertaste ([2]; 0.01 g/dl): 3.0 points
- Intensity of kokumi: First and middle taste ([2]; 0.01 g/dl): 3.0 points
- Intensity of kokumi: Aftertaste ([3]; 0.05 g/dl): 3.0 points
- Intensity of kokumi: First and middle taste ([3]; 0.05 g/dl): 3.0 points
- kokumi-imparting activity when used with a known calcium receptor activator or the like such as calcium ([3]; conclusion from Table 13): can have improved kokumi-imparting activity
- Intensity of kokumi: Aftertaste [4, 7]: 3.0 points
- Intensity of kokumi: First and middle taste [4, 7]: 3.0 points
- Intensity of kokumi: Aftertaste [4, 8]: 3.0 points
- Intensity of kokumi: First and middle taste [4, 8]: 3.0 points
- Intensity of kokumi: Aftertaste [4, 9]: 3.0 points
- Intensity of kokumi: First and middle taste [4, 9]: 3.0 points
- Intensity of kokumi: Aftertaste ([5]; 0.01 g/dl): 3.0 points
- Intensity of kokumi: First and middle taste ([5]; 0.01 g/dl): 3.0 points
- Sour taste (intensity of activity on basic tastes) ([6]; 0.10 g/dl): 1.5 points
- Salty taste (intensity of activity on basic tastes) ([6]; 0.10 g/dl): 0.2 points
- Umami (intensity of activity on basic tastes) ([6]; 0.10 g/dl): 0.7 points
- Sweet taste (intensity of activity on basic tastes) ([6]; 0.10 g/dl): 1.5 points

SMILES: CC(C)[C@H](NC(=O)CC[C@H](N)C(=O)O)C(=O)NCC(=O)O [γ-Glu-Val-Gly]
- Intensity of kokumi: Aftertaste ([1]; 0.0005 g/dl): 3.0 points
- Intensity of kokumi: First and middle taste ([1]; 0.0005 g/dl): 2.5 points
- Intensity of kokumi: Aftertaste ([1]; 0.001 g/dl): 4.0 points
- Intensity of kokumi: First and middle taste ([1]; 0.001 g/dl): 3.5 points
- Intensity of kokumi: Aftertaste ([1]; 0.01 g/dl): 5.0 points
- Intensity of kokumi: First and middle taste ([1]; 0.01 g/dl): 5.0 points
- Intensity of kokumi: Aftertaste ([1]; 0.1 g/dl): 5.0 points
- Intensity of kokumi: First and middle taste ([1]; 0.1 g/dl): 5.0 points
- Intensity of kokumi: Aftertaste ([2]; 0.0005 g/dl): 3.0 points
- Intensity of kokumi: First and middle taste ([2]; 0.0005 g/dl): 2.5 points
- Intensity of kokumi: Aftertaste ([2]; 0.001 g/dl): 4.0 points
- Intensity of kokumi: First and middle taste ([2]; 0.001 g/dl): 3.5 points
- Intensity of kokumi: Aftertaste ([2]; 0.01 g/dl): 5.0 points
- Intensity of kokumi: First and middle taste ([2]; 0.01 g/dl): 4.5 points
- Intensity of kokumi: Aftertaste ([2]; 0.1 g/dl): 5.0 points
- Intensity of kokumi: First and middle taste ([2]; 0.1 g/dl): 5.0 points
- Intensity of kokumi: Aftertaste ([3]; 0.005 g/dl): 3.0 points
- Intensity of kokumi: First and middle taste ([3]; 0.005 g/dl): 3.0 points
- Intensity of kokumi: Aftertaste [4, 10]: 3.0 points
- Intensity of kokumi: First and middle taste [4, 10]: 3.0 points
- Intensity of kokumi: Aftertaste ([4]; Table 6, 0.1 g/dl, n=5): *
- Intensity of kokumi: First and middle taste ([4]; Table 6, 0.1 g/dl, n=5): *
- Intensity of kokumi: Aftertaste [4, 11]: 3.0 points
- Intensity of kokumi: First and middle taste [4, 11]: 3.0 points
- Intensity of kokumi: Aftertaste ([5]; 0.0005 g/dl): 3.0 points
- Intensity of kokumi: First and middle taste ([5]; 0.0005 g/dl): 2.5 points
- Intensity of kokumi: Aftertaste ([5]; 0.001 g/dl): 3.5 points
- Intensity of kokumi: First and middle taste ([5]; 0.001 g/dl): 3.0 points
- Intensity of kokumi: Aftertaste ([5]; 0.01 g/dl): 5.0 points
- Intensity of kokumi: First and middle taste ([5]; 0.01 g/dl): 5.0 points
- Intensity of kokumi: Aftertaste ([5]; 0.1 g/dl): 5.0 points
- Intensity of kokumi: First and middle taste ([5]; 0.1 g/dl): 5.0 points
- Sour taste (intensity of activity on basic tastes) ([6]; 0.005 g/dl): 0.5 points
- Salty taste (intensity of activity on basic tastes) ([6]; 0.005 g/dl): 0.5 points
- Umami (intensity of activity on basic tastes) ([6]; 0.005 g/dl): 0.7 points
- Sweet taste (intensity of activity on basic tastes) ([6]; 0.005 g/dl): 0.5 points
- Sour taste (intensity of activity on basic tastes) ([6]; 0.01 g/dl): 1.0 points
- Salty taste (intensity of activity on basic tastes) ([6]; 0.01 g/dl): 1.0 points
- Umami (intensity of activity on basic tastes) ([6]; 0.01 g/dl): 1.5 points
- Sweet taste (intensity of activity on basic tastes) ([6]; 0.01 g/dl): 1.0 points
